According to ChEMBL document CHEMBL3853262 (Medchemcomm, 2016):
The source made the active and inactive calls. The rule behind the calls is not given here.

Tests used:
THP-1 [1] = assay: Induction of apoptosis in human THP1 cells assessed as early apoptotic cells at 25 uM after 4 hrs in presence of pan caspase inhibitor Z-VAD-fmk by annexin V/propidium iodide staining-based capillary cytometric method (reference value: 3.22%); type: functional
NTERA-2-cl-D1 [2] = assay: Induction of apoptosis in human NT2/D1 cells assessed as early apoptotic cells at 25 uM after 4 hrs in presence of pan caspase inhibitor Z-VAD-fmk by annexin V/propidium iodide staining-based capillary cytometric method (reference value: 3.40%); type: functional
THP-1 [3] = assay: Proapoptotic activity in human THP1 cells assessed as viable cells at 25 uM after 7 hrs by annexin V/propidium iodide staining-based capillary cytometric method relative to control; type: functional; conditions: THP-1, 7 h, read-out: Activity
THP-1 [4] = assay: Induction of apoptosis in human THP1 cells assessed as late apoptotic cells at 25 uM after 4 hrs in presence of pan caspase inhibitor Z-VAD-fmk by annexin V/propidium iodide staining-based capillary cytometric method (reference value: 0.34%); type: functional
THP-1 [5] = assay: Proapoptotic activity in human THP1 cells assessed as early apoptotic cells at 25 uM after 3 hrs by annexin V/propidium iodide staining-based capillary cytometric method relative to control; type: functional
NTERA-2-cl-D1 [6] = assay: Induction of apoptosis in human NT2/D1 cells assessed as viable cells at 25 uM after 4 hrs by annexin V/propidium iodide staining-based capillary cytometric method (reference value: 95.80%); type: functional; conditions: NTERA-2-cl-D1, 4 h, read-out: Activity
THP-1 [7] = assay: Proapoptotic activity in human THP1 cells assessed as late apoptotic cells at 25 uM after 3 hrs by annexin V/propidium iodide staining-based capillary cytometric method relative to control; type: functional
THP-1 [8] = assay: Proapoptotic activity in human THP1 cells assessed as early apoptotic cells at 25 uM after 1 hr by annexin V/propidium iodide staining-based capillary cytometric method relative to control; type: functional
NTERA-2-cl-D1 [9] = assay: Proapoptotic activity in human NT2/D1 cells assessed as necrotic cells at 25 uM after 1 hr by annexin V/propidium iodide staining-based capillary cytometric method relative to control; type: functional
NTERA-2-cl-D1 [10] = assay: Proapoptotic activity in human NT2/D1 cells assessed as early apoptotic cells at 25 uM after 7 hrs by annexin V/propidium iodide staining-based capillary cytometric method relative to control; type: functional
NTERA-2-cl-D1 [11] = assay: Induction of apoptosis in human NT2/D1 cells assessed as necrotic cells at 25 uM after 4 hrs in presence of pan caspase inhibitor Z-VAD-fmk by annexin V/propidium iodide staining-based capillary cytometric method (reference value: 0.10%); type: functional
NTERA-2-cl-D1 [12] = assay: Proapoptotic activity in human NT2/D1 cells assessed as late apoptotic cells at 25 uM after 5 hrs by annexin V/propidium iodide staining-based capillary cytometric method relative to control; type: functional
NTERA-2-cl-D1 [13] = assay: Induction of apoptosis in human NT2/D1 cells assessed as early apoptotic cells at 25 uM after 4 hrs by annexin V/propidium iodide staining-based capillary cytometric method (reference value: 3.40%); type: functional
NTERA-2-cl-D1 [14] = assay: Proapoptotic activity in human NT2/D1 cells assessed as early apoptotic cells at 25 uM after 1 hr by annexin V/propidium iodide staining-based capillary cytometric method relative to control; type: functional
NTERA-2-cl-D1 [15] = assay: Proapoptotic activity in human NT2/D1 cells assessed as viable cells at 25 uM after 7 hrs by annexin V/propidium iodide staining-based capillary cytometric method relative to control; type: functional; conditions: NTERA-2-cl-D1, 7 h, read-out: Activity
BJ = assay: Proapoptotic activity in human BJ cells by annexin V-FITC/propidium iodide staining-based capillary cytometric method; type: functional, cell-based
THP-1 [16] = assay: Proapoptotic activity in human THP1 cells assessed as viable cells at 25 uM after 3 hrs by annexin V/propidium iodide staining-based capillary cytometric method relative to control; type: functional; conditions: THP-1, 3 h, read-out: Activity
THP-1 [17] = assay: Proapoptotic activity in human THP1 cells assessed as necrotic cells at 25 uM after 5 hrs by annexin V/propidium iodide staining-based capillary cytometric method relative to control; type: functional
THP-1 [18] = assay: Proapoptotic activity in human THP1 cells assessed as early apoptotic cells at 25 uM after 7 hrs by annexin V/propidium iodide staining-based capillary cytometric method relative to control; type: functional
NTERA-2-cl-D1 [19] = assay: Induction of apoptosis in human NT2/D1 cells assessed as late apoptotic cells at 25 uM after 4 hrs in presence of pan caspase inhibitor Z-VAD-fmk by annexin V/propidium iodide staining-based capillary cytometric method (reference value: 0.70%); type: functional
NTERA-2-cl-D1 [20] = assay: Induction of apoptosis in human NT2/D1 cells assessed as activation of caspase 8/9 at 25 uM by 7-AAD staining-based capillary cytometric method; type: functional, cell-based
NTERA-2-cl-D1 [21] = assay: Proapoptotic activity in human NT2/D1 cells assessed as late apoptotic cells at 25 uM after 3 hrs by annexin V/propidium iodide staining-based capillary cytometric method relative to control; type: functional
THP-1 [22] = assay: Induction of apoptosis in human THP1 cells assessed as late necrotic cells at 25 uM after 4 hrs in presence of pan caspase inhibitor Z-VAD-fmk by annexin V/propidium iodide staining-based capillary cytometric method (reference value: 0.04%); type: functional
NTERA-2-cl-D1 [23] = assay: Proapoptotic activity in human NT2/D1 cells assessed as viable cells at 25 uM after 1 hr by annexin V/propidium iodide staining-based capillary cytometric method relative to control; type: functional; conditions: NTERA-2-cl-D1, 1 h, read-out: Activity
THP-1 [24] = assay: Proapoptotic activity in human THP1 cells assessed as late apoptotic cells at 25 uM after 7 hrs by annexin V/propidium iodide staining-based capillary cytometric method relative to control; type: functional
NTERA-2-cl-D1 [25] = assay: Proapoptotic activity in human NT2/D1 cells assessed as late apoptotic cells at 25 uM after 1 hr by annexin V/propidium iodide staining-based capillary cytometric method relative to control; type: functional
THP-1 [26] = assay: Proapoptotic activity in human THP1 cells assessed as late apoptotic cells at 25 uM after 1 hr by annexin V/propidium iodide staining-based capillary cytometric method relative to control; type: functional
NTERA-2-cl-D1 [27] = assay: Proapoptotic activity in human NT2/D1 cells by annexin V-FITC/propidium iodide staining-based capillary cytometric method; type: functional, cell-based
THP-1 [28] = assay: Induction of apoptosis in human THP1 cells assessed as activation of caspase 3/7 by measuring DNA fragmentation at 25 uM after 3 hrs by 7-AAD staining-based capillary cytometric method; type: functional, cell-based

EC50 (NTERA-2-cl-D1 [27]): 11 µM
SMILES: CNc1nc(-c2cccc(NC(=O)c3cc4ccccc4[nH]3)c2)c[nH]1.Cl
Activity (THP-1 [1]): 64.66%
Activity (NTERA-2-cl-D1 [2]): 8.15%
viability at 25 µM (THP-1 [3]): 17.8%
Activity (THP-1 [4]): 17.2%
Activity (THP-1 [5]): 5.81%
viability at 25 µM (NTERA-2-cl-D1 [6]): 70.7%
Activity (THP-1 [7]): 16.53%
Activity (THP-1 [8]): 1.45%
Activity (NTERA-2-cl-D1 [9]): 0.11%
Activity (NTERA-2-cl-D1 [10]): 55.66%
Activity (NTERA-2-cl-D1 [11]): 0.17%
Activity (NTERA-2-cl-D1 [12]): 6.08%
Activity (NTERA-2-cl-D1 [13]): 23.88%
Activity (NTERA-2-cl-D1 [14]): 8.6%
viability at 25 µM (NTERA-2-cl-D1 [15]): 31.2%
EC50 (BJ): 21 µM
viability at 25 µM (THP-1 [16]): 77.3%
Activity (THP-1 [17]): 0.1%
Activity (THP-1 [18]): 36.14%
Activity (NTERA-2-cl-D1 [19]): 2.87%
Activity (NTERA-2-cl-D1 [20]): Active
Activity (NTERA-2-cl-D1 [21]): 3.24%
Activity (THP-1 [22]): 0.1%
viability at 25 µM (NTERA-2-cl-D1 [23]): 87.7%
Activity (THP-1 [24]): 45.9%
Activity (NTERA-2-cl-D1 [25]): 3.59%
Activity (THP-1 [26]): 2.66%
Activity (THP-1 [28]): Active
